Laboratory results reported in patent US20230064324A1, “NEW USES FOR STEVIOL” (SUNTORY HOLDINGS LIMITED, priority 2019, published 2023).

How the values were obtained:
[1] = system: PC12 cells (clone HS); experiment: Cytotoxicity of steviol to PC12 cells (WST-8 viable cell count); type: cell-based, Rat; settings: for Relative viable cell count (%): 3 days, Control=100%
Description: PC12 cells (clone HS, Cat. No. JCRB0266, JCRB) were precultured for 3 days in a collagen IV-coated flask (T-75, Corning Inc., Cat. No. 354523) using a growth medium (DMEM medium (low glucose, Cat. No. 08456-65, Nacalai Tesque, Inc.) supplemented with 10% FBS (Cat. No. 172012, Sigma-Aldrich Co., LLC), 10% horse serum (Cat. No. 16050-122, Thermo Fisher Scientific Inc.), and 1% penicillin-streptomycin) in a CO2 incubator (37° C., 5% CO2; the same holds true for the description below). […] A vehicle control composed of a test medium supplemented with 0.1% DMSO (final concentration) was used as a negative control.

[2] = system: CHOP; experiment: CHOP expression in adipocytes under endoplasmic reticulum stress (RT-PCR); type: cell-based, Human; settings: pretreatment 24 h, tunicamycin 0.65 μM 24 h
Description: Adipocytes were prepared as follows. Normal human subcutaneous preadipocytes were reconstituted in a T75 flask using a growth medium (PBM-2 medium, Cat. No. PT-8002, Lonza, supplemented with 10% FBS, 2 mM L-glutamine, 50 μg/mL gentamycin, and 37 ng/mL amphotericin-B), and precultured for 3 days in a CO2 incubator (37° C., 5% CO2; the same holds true for the description below).
(§1) The lysate was preserved at −80° C. until use.
(§2) The internal standard gene used was GAPDH gene.

[3] = system: neuronal cells (induced from PC12 cells); experiment: Cytotoxicity of steviol to neuronal cells (differentiated PC12, WST-8); type: cell-based, Rat; settings: for Relative viable cell count (%): 2 days, differentiated PC12, Control=100%
From the text: PC12 cells (Cat. No. 88022401, ECACC) were precultured in a collagen IV-coated flask using the growth medium. […] A vehicle control composed of a test medium supplemented with 0.1% DMSO (final concentration) was used as a negative control.

[4] = system: CHOP; experiment: CHOP expression in neuronal cells under endoplasmic reticulum stress (RT-PCR); type: cell-based, Rat; settings: pretreatment 1 h, tunicamycin 0.16 μM 24 h
Description: Neuronal cells were prepared as follows. PC12 cells were reconstituted by seeding at 2×10^6 cells/flask to a collagen IV-coated flask, and precultured for 3 days in the growth medium in a CO2 incubator.
as §1, §2

[5] = system: GRP78; experiment: GRP78 expression in pancreatic cells (βTC6) under endoplasmic reticulum stress (RT-PCR); type: cell-based, Mouse; settings: pretreatment 4 h, tunicamycin 0.16 μM 24 h
Description: as §1, §2

[6] = system: neuronal cells (induced from PC12 cells); experiment: Cell-protecting effect against tunicamycin-induced endoplasmic reticulum stress (WST-8); settings: 1 μM tunicamycin
Description: PC12 cells were precultured using the growth medium in a same manner as Example 3. The cells were detached using 0.25% trypsin-EDTA, seeded at 5,000 cells/100 μL/well to a collagen IV-coated 96-well plate (Cat. No. 354429, Corning) using the growth medium, and cultured overnight in a CO2 incubator. On the next day, the medium was replaced with 100 μL of the differentiation medium, and the cells were cultured for 2 days in a CO2 incubator to induce their differentiation into neuronal cells. […] IGF-1 (Cat. No. SRP4121, Sigma-Aldrich Co., LLC) was dissolved at 100 μg/mL in Nuclease Free Water and then added at 100 ng/mL to the differentiation medium.
After the completion of endoplasmic reticulum stress induction treatment, viable cell count measurement was performed by the WST-8 method to evaluate damage on the cells by endoplasmic reticulum stress. Specifically, the medium of each well after culture was replaced with 200 μL of a differentiation medium supplemented with a 1/10 amount of viable cell count measurement reagent SF, and the cells were incubated in a CO2 incubator. 30 minutes later and 90 minutes later, absorbance (450 nm, reference wavelength: 630 nm) was measured using a plate reader (VARIOSKAN FLASH, Thermo Fisher Scientific Inc.), and absorbance difference per 60 minutes was regarded as a relative viable cell count.

[7] = system: endoplasmic reticulum stress markers CHOP and GRP78; experiment: Endoplasmic reticulum stress-suppressing effect in each type of cell (markers CHOP and GRP78), overall statement; type: cell-based; settings: neuronal cells, adipocytes, hepatocytes, pancreatic cells; tunicamycin-induced; CHOP and GRP78 as index
Description: Steviol was evaluated for its influence on endoplasmic reticulum stress in each type of cell by using endoplasmic reticulum stress markers CHOP and GRP78 as an index. The test cells used were neuronal cells (induced from PC12 cells), adipocytes (normal human subcutaneous preadipocytes, Cat. No. PT-5020, Lonza Group AG), hepatocytes (HepG2, Cat. No. JCRB1054, JCRB) and pancreatic cells (βTC6, ATCC® CRL-11506).
4PA (P21005, Sigma-Aldrich Co., LLC) was dissolved in a medium and then added at a predetermined concentration to a differentiation medium or a growth medium.
After the completion of endoplasmic reticulum stress induction treatment, the expression levels of CHOP and GRP78 were measured to evaluate the degree of endoplasmic reticulum stress. First, FasteLane lysate (RNA) was prepared for RNA extraction using FastLane Cell Probe kit (Cat. No. 216413, Qiagen N.V.). After removal of the medium, each well was washed by the addition of 125 μL of Buffer FCW and its immediate removal. Then, 50 μL of Cell processing mix was added to each well, followed by incubation at room temperature for 5 minutes to prepare FasteLane lysate. […]
RT-PCR reaction was performed under conditions of 50° C. for 30 minutes, 95° C. for 15 minutes, and (94° C. for 15 seconds and 60° C. for 60 seconds)×40 cycles. […] A relative expression level was calculated by the ΔΔCt method. […]

[8] = system: PC12 cells (clone HS); experiment: Neurite elongation-promoting effect on PC12 cells (neurite length per cell, Operetta CLS); type: cell-based, Rat; settings: for Relative neurite length (%): 3 days, negative control=100%
Description: PC12 cells (clone HS) were precultured using a growth medium in the same manner as in Example 1. […] The cells thus cultured were subjected to cell membrane staining using Cell Membrane Stain attached to Neurite Outgrowth Staining Kit (Thermo Fisher Scientific Inc.) and nuclear staining using Hoechst 33342 (Cat. No. H3570). Specifically, the medium was replaced with 100 μL of a fixative and staining solution (prepared by adding a 1/1000 amount each of Cell Membrane Stain (1000×) and Hoechst 33342 and a 1/25 amount of a formaldehyde solution (Cat. No. 061-00416, FUJIFILM Wako Pure Chemical Corp.) to DPBS (++) (Cat. No. 14040133, Thermo Fisher Scientific Inc.)), followed by incubation for 20 minutes in a CO2 incubator (5% CO2, 37° C., humid). […] Photographing and quantitative analysis were carried out using Operetta CLS (Perkin Elmer, Inc.), and a neurite length per cell was calculated. Nine fields of view at the center of each well were photographed using a 10× objective lens. A test medium supplemented with 50 ng/mL NGF was used as a positive control, and a vehicle control composed of a differentiation medium supplemented with 0.1% DMSO (final concentration) was used as a negative control.

`C=C1C[C@@]23CC[C@H]4[C@@](C)(CCC[C@@]4(C)C(=O)O)[C@@H]2CC[C@]1(O)C3` [Steviol] was tested, and the “cytotoxicity to PC12 cells (in words)” value ([1]; 100 μg/mL steviol) was “no particular cytotoxicity to be noted was found”, the “Relative viable cell count (%)” value ([1]; steviol 0.01 μg/mL) was 102.8% and the “Relative viable cell count (%)” value ([1]; steviol 0.1 μg/mL) was 97.0%. For the same compound, the “Relative viable cell count (%)” value ([1]; steviol 1 μg/mL) was 95.3%, the “Relative viable cell count (%)” value ([1]; steviol 10 μg/mL) was 99.6% and the “Relative viable cell count (%)” value ([1]; steviol 100 μg/mL) was 96.9%. For the same compound, the “Expression level of CHOP in adipocytes (relative to GAPDH, untreated=1)” value ([2]; steviol 6.25 μg/mL) was 3.49, the “Expression level of CHOP in adipocytes (relative to GAPDH, untreated=1)” value ([2]; steviol 12.5 μg/mL) was 3.23 and the “Expression level of CHOP in adipocytes (relative to GAPDH, untreated=1)” value ([2]; steviol 25 μg/mL) was 3.15. For the same compound, the “Expression level of CHOP in adipocytes (relative to GAPDH, untreated=1)” value ([2]; steviol 50 μg/mL) was 3.17, the “cytotoxicity to neuronal cells (in words)” value ([3]; 100 μg/mL steviol) was “no particular cytotoxicity to be noted was found” and the “Relative viable cell count (%)” value ([3]; steviol 0.01 μg/mL) was 97.7%. For the same compound, the “Relative viable cell count (%)” value ([3]; steviol 0.1 μg/mL) was 104.4%, the “Relative viable cell count (%)” value ([3]; steviol 1 μg/mL) was 93.6% and the “Relative viable cell count (%)” value ([3]; steviol 10 μg/mL) was 91.4%. The “Relative viable cell count (%)” value ([3]; steviol 100 μg/mL) was 95.1%, the “Expression level of CHOP in neuronal cells (relative to GAPDH, untreated=1)” value ([4]; steviol 6.25 μg/mL) was 6.61 and the “Expression level of CHOP in neuronal cells (relative to GAPDH, untreated=1)” value ([4]; steviol 12.5 μg/mL) was 6.55. For the same compound, the “Expression level of CHOP in neuronal cells (relative to GAPDH, untreated=1)” value ([4]; steviol 25 μg/mL) was 6.24, the “Expression level of CHOP in neuronal cells (relative to GAPDH, untreated=1)” value ([4]; steviol 50 μg/mL) was 5.79 and the “Expression level of GRP78 in pancreatic cells (relative to GAPDH, untreated=1)” value ([5]; steviol 6.25 μg/mL) was 2.10. The “Expression level of GRP78 in pancreatic cells (relative to GAPDH, untreated=1)” value ([5]; steviol 12.5 μg/mL) was 2.03, the “Expression level of GRP78 in pancreatic cells (relative to GAPDH, untreated=1)” value ([5]; steviol 25 μg/mL) was 1.80 and the “Expression level of GRP78 in pancreatic cells (relative to GAPDH, untreated=1)” value ([5]; steviol 50 μg/mL) was 1.66. For the same compound, the “adverse effect of endoplasmic reticulum stress on cells (in words)” value [6] was “suppressed an adverse effect of endoplasmic reticulum stress on cells in a concentration-dependent manner”, the “endoplasmic reticulum stress (in words)” value [7] was “suppressed endoplasmic reticulum stress in each type of cell in a concentration-dependent manner” and the “neurite elongation (in words)” value ([8]; PC12 cells, varying concentrations of steviol) was “promoted neurite elongation in a concentration-dependent manner”. For the same compound, the “Relative neurite length (%)” value ([8]; steviol 12.5 μg/mL) was 133.3%, the “Relative neurite length (%)” value ([8]; steviol 25 μg/mL) was 180.9% and the “Relative neurite length (%)” value ([8]; steviol 50 μg/mL) was 235.2%. For the same compound, the “Relative neurite length (%)” value ([8]; steviol 100 μg/mL) was 307.7% and the “Relative neurite length (%)” value ([8]; steviol 200 μg/mL) was 308.6%.
